Results from patent US10130633B2, “Compounds” (BAYER PHARMA AKTIENGESELLSCHAFT, priority 2013, dated 2018).
Counter-ions that a name gives are not always drawn.

Legend:
[1] = tested on: constitutive active colorectal cancer cell (CRC) Wnt pathway; test: HCT116 TOPFlash cellular reporter assay (Super TopFlash luciferase), constitutive active Wnt pathway; format: cell-based; details: HCT116 TOP reporter cells, 36 hours incubation, luciferase expression
Description: In order to discover and characterize small molecules which inhibit the constitutive active colorectal cancer cell (CRC) Wnt pathway, a cellular reporter assay was employed. […] Stable transfectants were generated by cotransfection with pcDNA3 and selection of stable transfected cells with 1 mg/ml G418.

[2] = tested on: HCT116 FOP control reporter cell line; test: HCT116 FOPFlash control reporter assay (FOP control vector, non-functional TCF elements); format: cell-based; details: HCT116 FOP control reporter cells, 36 hours incubation, luciferase expression
Text: In a parallel approach, HCT116 cells were cotransfected with the FOP control vector and pcDNA3. The FOP vector is identical to the TOP construct, but it contains instead of functional TCF elements a randomized, non-functional sequence. For this transfection a stable transfected cell line was generated as well.

## CS(=O)(=O)c1ccc(C(=O)Nc2ccc(-c3ccccc3F)nc2)cc1NC(=O)CN1CCOCC1 [Example 139, N-[6-(2-fluorophenyl)pyridin-3-yl]-4-(methylsulfonyl)-3-[(morpholin-4-ylacetyl)amino]benzamide]
[1]; Homo sapiens, HCT-116, 36 h
  IC50: 0.5 µM
[2]; Homo sapiens, HCT-116, 36 h
  IC50: 25 µM

## CC[C@H](C(=O)Nc1cc(C(=O)Nc2nnc(-c3ccccc3)s2)ccc1OC(F)(F)F)N1CCN(C)CC1 [Example 274, 3-{[(2R)-2-(4-methylpiperazin-1-yl)butanoyl]amino}-N-(5-phenyl-1,3,4-thiadiazol-2-yl)-4-(trifluoromethoxy)benzamide]
[1]; Homo sapiens, HCT-116, 36 h
  IC50: 3.02 µM
[2]; Homo sapiens, HCT-116, 36 h
  IC50: ≥ 50 µM

## O=C(CN1CCOCC1)Nc1cc(C(=O)Nc2nnc(-c3ccccc3)s2)ccc1OC1CC1 [Example 170, 4-(cyclopropyloxy)-3-[(morpholin-4-ylacetyl)amino]-N-(5-phenyl-1,3,4-thiadiazol-2-yl)benzamide]
[1]; Homo sapiens, HCT-116, 36 h
  IC50: 0.118 µM
[2]; Homo sapiens, HCT-116, 36 h
  IC50: ≥ 50 µM

## CC(C(=O)Nc1cc(C(=O)Nc2ccc(-c3cccc(F)c3)nc2)ccc1OC(F)(F)F)N1C[C@@H]2C[C@H]1CO2 (relative stereo) [Example 244, N-[6-(3-fluorophenyl)pyridin-3-yl]-3-({(2S*)-2-[(1S,4S)-2-oxa-5-azabicyclo[2.2.1]hept-5-yl]propanoyl}amino)-4-(trifluoromethoxy)benzamide]
[1]
  IC50: 0.12 µM
[2]
  IC50: ≥ 50 µM

## O=C(CN1CC2CCC(C1)O2)Nc1cc(C(=O)Nc2nnc(-c3ccccc3)s2)ccc1OC(F)(F)F [Example 240, 3-[(8-oxa-3-azabicyclo[3.2.1]oct-3-ylacetyl)amino]-N-(5-phenyl-1,3,4-thiadiazol-2-yl)-4-(trifluoromethoxy)benzamide]
[1]; Homo sapiens, HCT-116, 36 h
  IC50: 1.18 µM
[2]; Homo sapiens, HCT-116, 36 h
  IC50: ≥ 50 µM

## COCc1ccc(C(=O)Nc2nnc(-c3ccccc3)s2)cc1NC(=O)CN1CCN(C2CC2)CC1 [Example 84, 3-{[(4-cyclopropylpiperazin-1-yl)acetyl]amino}-4-(methoxymethyl)-N-(5-phenyl-1,3,4-thiadiazol-2-yl)benzamide]
[1]; Homo sapiens, HCT-116, 36 h
  IC50: 0.453 µM
[2]; Homo sapiens, HCT-116, 36 h
  IC50: ≥ 50 µM

## CC(C(=O)Nc1cc(NC(=O)c2ccc(-c3ccccc3F)nc2)ccc1OC(F)(F)F)N1CCOCC1 (stereo not shown) [Example 213, 6-(2-fluorophenyl)-N-[3-{[2-(morpholin-4-yl)propanoyl]amino}-4-(trifluoromethoxy)phenyl] nicotinamide]
[1]
  IC50: 0.14 µM
[2]
  IC50: ≥ 50 µM

## COCCN(C)CC(=O)Nc1cc(C(=O)Nc2nnc(-c3ccccc3)s2)ccc1OC(F)(F)F [Example 85, 3-{[N-(2-methoxyethyl)-N-methylglycyl]amino}-N-(5-phenyl-1,3,4-thiadiazol-2-yl)-4-(trifluoromethoxy)benzamide]
[1]; Homo sapiens, HCT-116, 36 h
  IC50: 0.15 µM
[2]; Homo sapiens, HCT-116, 36 h
  IC50: ≥ 50 µM

## COc1ccc(C(=O)Nc2ccc(-c3ccccc3F)nc2)cc1NC(=O)CN1C[C@@H]2C[C@H]1CO2 [Example 3, N-[6-(2-fluorophenyl)pyridin-3-yl]-4-methoxy-3-{[(1S,4S)-2-oxa-5-azabicyclo[2.2.1]hept-5-ylacetyl]amino}benzamide]
[1]; Homo sapiens, HCT-116, 36 h
  IC50: 1.8 µM
[2]; Homo sapiens, HCT-116, 36 h
  IC50: ≥ 50 µM

## CN1CCCN(CC(=O)Nc2cc(C(=O)Nc3nnc(-c4ccccc4)s3)ccc2OC(F)(F)F)CC1 [Example 168, 3-{[(4-methyl-1,4-diazepan-1-yl)acetyl]amino}-N-(5-phenyl-1,3,4-thiadiazol-2-yl)-4-(trifluoromethoxy)benzamide]
[1]; Homo sapiens, HCT-116, 36 h
  IC50: 1.08 µM
[2]; Homo sapiens, HCT-116, 36 h
  IC50: 12 µM

## C[C@@H](C(=O)Nc1cc(C(=O)Nc2ccc(-c3ccc(CO)cc3)nc2)ccc1OC(F)(F)F)N1CCOCC1 (single isomer, unassigned) [Example 120, N-{6-[4-(hydroxymethyl)phenyl]pyridin-3-yl}-3-{[(2S)-2-(morpholin-4-yl)propanoyl]amino}-4-(trifluoromethoxy)benzamide or N-{6-[4-(hydroxymethyl)phenyl]pyridin-3-yl}-3-{[(2R)-2-(morpholin-4-yl)propanoyl]amino}-4-(trifluoromethoxy)benzamide]
[1]
  IC50: 0.105 µM
[2]
  IC50: ≥ 50 µM

## CC(C(=O)Nc1cc(C(=O)Nc2ccc(-c3cccc(F)c3)nc2)ccc1OC(F)(F)F)N1CCOCC1 (stereo not shown) [Example 182, N-[6-(3-fluorophenyl)pyridin-3-yl]-3-{[2-(morpholin-4-yl)propanoyl]amino}-4-(trifluoromethoxy)benzamide]
[1]
  IC50: 0.288 µM
[2]; Homo sapiens, HCT-116, 36 h
  IC50: 44 µM

## CN1CCN(CC(=O)Nc2cc(C(=O)Nc3ccc(-c4ccccc4F)nc3)ccc2C(F)(F)F)CC1 [Example 210, N-[6-(2-fluorophenyl)pyridin-3-yl]-3-{[(4-methylpiperazin-1-yl)acetyl]amino}-4-(trifluoromethyl)benzamide]
[1]; Homo sapiens, HCT-116, 36 h
  IC50: 0.152 µM
[2]; Homo sapiens, HCT-116, 36 h
  IC50: 29.5 µM

## CC(C(=O)Nc1cc(NC(=O)c2ccc(-c3cc(F)cc(F)c3)nc2)ccc1OC(F)(F)F)N1C[C@@H]2C[C@H]1CO2 (relative stereo) [Example 217, 6-(3,5-difluorophenyl)-N-[3-({(2S*)-2-[(1S,4S)-2-oxa-5-azabicyclo[2.2.1]hept-5-yl]propanoyl}amino)-4-(trifluoromethoxy)phenyl] nicotinamide]
[1]
  IC50: 0.438 µM
[2]
  IC50: ≥ 50 µM

## O=C(Nc1nnc(-c2ccccc2)s1)c1ccc(O)c(NC(=O)C2(N3CCOCC3)CC2)c1 [Example 93, 4-hydroxy-3-({[1-(morpholin-4-yl)cyclopropyl]carbonyl}amino)-N-(5-phenyl-1,3,4-thiadiazol-2-yl)benzamide]
[1]; Homo sapiens, HCT-116, 36 h
  IC50: 0.24 µM
[2]; Homo sapiens, HCT-116, 36 h
  IC50: ≥ 50 µM

## CC(C(=O)Nc1cc(NC(=O)c2ccc(-c3ccccc3F)nc2)ccc1OC(F)(F)F)N1CCOCC1 (stereo not shown) [Example 206, 6-(2-fluorophenyl)-N-[3-{[2-(morpholin-4-yl)propanoyl]amino}-4-(trifluoromethoxy)phenyl] nicotinamide]
[1]
  IC50: 0.0876 µM
[2]; Homo sapiens, HCT-116, 36 h
  IC50: 36.5 µM

## CN(C)C1(C(=O)Nc2cc(C(=O)Nc3ccc(-c4ccccc4F)nc3)ccc2OC2CC2)CC1 [Example 140, 4-(cyclopropyloxy)-3-({[1-(dimethylamino)cyclopropyl]carbonyl}amino)-N-[6-(2-fluorophenyl)pyridin-3-yl]benzamide]
[1]; Homo sapiens, HCT-116, 36 h
  IC50: 0.293 µM
[2]; Homo sapiens, HCT-116, 36 h
  IC50: 10 µM

## O=C(CN1CCOCC1)Nc1cc(C(=O)Nc2nnc(-c3ccccc3F)s2)ccc1OC(F)(F)F [Example 127, N-[5-(2-fluorophenyl)-1,3,4-thiadiazol-2-yl]-3-[(morpholin-4-ylacetyl)amino]-4-(trifluoromethoxy)benzamide]
[1]; Homo sapiens, HCT-116, 36 h
  IC50: 0.885 µM
[2]; Homo sapiens, HCT-116, 36 h
  IC50: ≥ 50 µM

## Cc1ccccc1-c1nnc(NC(=O)c2ccc(OC(F)F)c(NC(=O)CN3CCN(C)CC3)c2)s1 [Example 175, 4-(difluoromethoxy)-N-[5-(2-methylphenyl)-1,3,4-thiadiazol-2-yl]-3-{[(4-methylpiperazin-1-yl)acetyl]amino}benzamide]
[1]; Homo sapiens, HCT-116, 36 h
  IC50: 0.215 µM
[2]; Homo sapiens, HCT-116, 36 h
  IC50: 7.1 µM

## CC(C(=O)Nc1cc(C(=O)Nc2ccc(-c3ccccc3F)nc2)ccc1C(C)(C)C)N1CCOCC1 (stereo not shown) [Example 142, 4-tert-butyl-N-[6-(2-fluorophenyl)pyridin-3-yl]-3-{[2-(morpholin-4-yl)propanoyl]amino}benzamide]
[1]; Homo sapiens, HCT-116, 36 h
  IC50: 0.118 µM
[2]; Homo sapiens, HCT-116, 36 h
  IC50: 7.15 µM

## CC(C(=O)Nc1cc(NC(=O)c2ccc(-c3cc(F)cc(F)c3)nc2)ccc1OC(F)(F)F)N1C[C@@H]2C[C@H]1CO2 (relative stereo) [Example 185, 6-(3,5-difluorophenyl)-N-[3-({(2R*)-2-[(1S,4S)-2-oxa-5-azabicyclo[2.2.1]hept-5-yl]propanoyl}amino)-4-(trifluoromethoxy)phenyl] nicotinamide]
[1]
  IC50: 0.16 µM
[2]
  IC50: 10 µM

## CC(C(=O)Nc1cc(C(=O)Nc2ccc(-c3ccccc3F)nc2)ccc1C(F)(F)F)N1CCOCC1 (stereo not shown) [Example 225, N-[6-(2-fluorophenyl)pyridin-3-yl]-3-{[2-(morpholin-4-yl)propanoyl]amino}-4-(trifluoromethyl)benzamide]
[1]
  IC50: 0.237 µM
[2]
  IC50: 11.2 µM

## O=C(CN1CCOCC1)Nc1cc(NC(=O)c2cc(-c3ccccc3)[nH]n2)ccc1OC(F)(F)F [Example 124, N-{3-[(morpholin-4-ylacetyl)amino]-4-(trifluoromethoxy)phenyl}-5-phenyl-1H-pyrazole-3-carboxamide]
[2]; Homo sapiens, HCT-116, 36 h
  IC50: ≥ 50 µM

## CC(C(=O)Nc1cc(C(=O)Nc2nnc(-c3ccccc3)s2)ccc1CS(C)(=O)=O)N1CCN(C)CC1 (stereo not shown) [Example 230, 3-{[2-(4-methylpiperazin-1-yl)propanoyl]amino}-4-[(methylsulfonyl)methyl]-N-(5-phenyl-1,3,4-thiadiazol-2-yl)benzamide trifluoroacetate (1:1)]
[1]; Homo sapiens, HCT-116, 36 h
  IC50: 0.72 µM

## CC(C(=O)Nc1cc(C(=O)Nc2nnc(-c3ccccc3)s2)ccc1OC(F)(F)F)N1CCOCC1 (stereo not shown) [Example 242, 3-{[2-(morpholin-4-yl)propanoyl]amino}-N-(5-phenyl-1,3,4-thiadiazol-2-yl)-4-(trifluoromethoxy)benzamide]
[2]
  IC50: ≥ 50 µM

## COc1ccc(NC(=O)c2ccc(-c3ccccc3)[nH]2)cc1NC(=O)CN1CCOCC1 [Example 24, N-{4-methoxy-3-[(morpholin-4-ylacetyl)amino]phenyl}-5-phenyl-1H-pyrrole-2-carboxamide]
[2]; Homo sapiens, HCT-116, 36 h
  IC50: ≥ 50 µM

## C[C@@H](C(=O)Nc1cc(C(=O)Nc2ccc(-c3ccc(N)cc3)nc2)ccc1OC(F)(F)F)N1CCOCC1 (single isomer, unassigned) [Example 118, N-[6-(4-aminophenyl)pyridin-3-yl]-3-{[(2R)-2-(morpholin-4-yl)propanoyl]amino}-4-(trifluoromethoxy)benzamide or N-[6-(4-aminophenyl)pyridin-3-yl]-3-{[(2S)-2-(morpholin-4-yl)propanoyl]amino}-4-(trifluoromethoxy)benzamide]
[2]
  IC50: ≥ 50 µM
